In patent US20040063612A1, “Neuroprotective agents” (priority 2002, published 2004):

Legend:
[1] = tested on: primary cortical neuron cultures; assay: Neuronal viability after oxidative stress (H2O2), crystal violet assay; format: cell-based, rat; conditions: pre-treatment one day prior to 40 mM H2O2
Description: Cell viability assays. […] Since the MTT assay measures both metabolic function (mitochondrial-based) and cell viability, a second method, the crystal violet assay, was used to assess cell density. For the crystal violet assay, the cells were rinsed in phosphate buffered saline (PBS) and stained for 10 minutes at room temperature with crystal violet solution (0.05% crystal violet, 2% formalin, 10% methanol). After extensive rinsing in tap water baths, the plates were dried and the dye eluted with 200 μl/well of PBS containing 1% SDS. The absorbance was measured at 595 nm using an automated ELISA reader.
High through-put screening with primary neuronal cell cultures. Primary neuronal cells were cultured in 96-well plates coated with collagen type IV or laminin.
Cerebral cortex tissue harvested from 16-18 day old rat fetuses (Sprague-Dawley) was incubated for 10 minutes in calcium-free and magnesium-free Hanks balanced salt solution (CMF-HBSS), followed by digestion in 0.25% trypsin/CMF-HBSS for 30 minutes at 37° C. […]
The cell viability was measured using the crystal violet assay one day after the oxidative injury. […]
Viability is expressed as percentage change relative to cultures treated only with the oxidant. […] Cell viability was measured using the crystal violet assay 1 day after the oxidative injury. […] Standard deviations calculated for 8 replicate cultures were <10%.

cerebral ischaemia = conditions: cited from earlier work

| Structure (SMILES) | increase in viability (in words) [1] | neuronal rescue (in words) [1] | infarct volume reductions (cerebral ischaemia) |
| --- | --- | --- | --- |
| c1ccc(Nc2ccccc2)cc1 [Diphenylamine, diphenylamine] | modest increase in viability | less pronounced neuronal rescue |  |
| [Mg+2] [Mg, magnesium] |  |  | 25-61% |
